Test results taken from patent US12448390B1, “Compound with α-glucosidase inhibitory activity and application thereof” (priority 2024, dated 2025).

Molecular target: a-glucosidase (Saccharomyces cerevisiae, UniProt P53341)
Type: biochemical
Settings: 0.5 U/ml enzyme, 0.6 mM pNaGP, pH 6.8, 37° C.; for Inhibition rate %: compound at 250 μmol/L; for IC50: gradient 500 to 7.8125 μmol/L
Description: An in vitro a-glucosidase activity assay was used for activity determination:
the compounds were weighed separately, and dissolved in dimethylsulfoxide (DMSO) to prepare 250 μmol/L of a reagent for a subsequent experiment. In short, a-glucosidase solution with a final concentration of 0.5 U/ml was reacted with 250 μmol/L of the compound and 0.6 mM of pNaGP solution in 0.1 mM, pH 6.8 phosphate buffer solution, to determine the inhibitory effect of the compound on an a-glucosidase conversion substrate. […] 250 μmol/L (10 μL) of the compound, enzyme solution (40 μL), and potassium phosphate buffer solution (100 μL) were pre-incubated in a 96-well plate at 37° C. for 10 min. Then, 50 μL of the substrate (pNaGP, 0.6 mM) was added to each micropore, it was incubated at 37° C. for 20 min, the absorbance was measured at 405 nm, and changes in enzyme activity were detected.
The formula for calculating the enzyme inhibitory activity of the compound tested was as follows:
The in vitro a-glucosidase activity assay was used for activity determination:
after the compounds were weighed separately, it was dissolved in DMSO to prepare 1 mmol/L of mother solution, and it was diluted in gradient to 500 μmol/L, 250 μmol/L, 125 μmol/L, 62.5 μmol/L, 31.25 μmol/L, 15.625 μmol/L and 7.8125 μmol/L. The different concentrations of the compounds (10 μL), 0.5 U/ml of enzyme solution (40 μL), and 0.1 mM, pH 6.8 phosphate buffer solution (100 μL) were pre-incubated in the 96-well plate at 37° C. for 10 min. Then, 50 μL of the substrate (pNaGP, 0.6 mM) was added to each micropore, it was incubated at 37° C. for 20 min, the absorbance was measured at 405 nm, and changes in enzyme activity were detected.

Chain of a-glucosidase (P53341 whole entry): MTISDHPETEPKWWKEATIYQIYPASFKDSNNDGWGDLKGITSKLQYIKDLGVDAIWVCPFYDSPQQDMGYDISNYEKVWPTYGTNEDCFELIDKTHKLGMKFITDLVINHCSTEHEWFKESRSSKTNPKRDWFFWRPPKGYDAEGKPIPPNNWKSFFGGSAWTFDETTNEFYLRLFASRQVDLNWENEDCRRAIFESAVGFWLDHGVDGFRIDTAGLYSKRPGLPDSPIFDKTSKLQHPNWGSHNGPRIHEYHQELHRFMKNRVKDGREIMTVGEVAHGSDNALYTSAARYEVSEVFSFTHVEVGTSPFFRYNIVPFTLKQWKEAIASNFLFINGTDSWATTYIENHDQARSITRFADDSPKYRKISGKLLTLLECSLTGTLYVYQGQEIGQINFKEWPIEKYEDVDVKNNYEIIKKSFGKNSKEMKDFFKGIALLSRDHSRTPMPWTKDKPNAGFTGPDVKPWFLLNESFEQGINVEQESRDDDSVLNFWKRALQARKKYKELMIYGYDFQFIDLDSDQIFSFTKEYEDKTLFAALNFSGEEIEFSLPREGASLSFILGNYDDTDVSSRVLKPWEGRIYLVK

With `Cc1ncc(CO)c2cc(C(=O)Nc3ccc(F)cc3)c(=Nc3cccc(C(F)(F)F)c3)oc12` [GFY-1] the Inhibition rate % was 23.042%.

`Cc1ncc(CO)c2cc(C(=O)Nc3ccc(F)cc3)c(=Nc3ccc(C(F)(F)F)cc3)oc12` [GFY-2] was tested, and the Inhibition rate % was 13.832%.

In the case of `COc1cccc(N=c2oc3c(C)ncc(CO)c3cc2C(=O)Nc2ccc(F)cc2)c1` [GFY-4], the Inhibition rate % is reported as 30.769%.

`Cc1ncc(CO)c2cc(C(=O)Nc3ccc(F)cc3)c(=Nc3cc(O)cc(CO)c3)oc12` [GFY-7] was tested, and the Inhibition rate % was 45.254%.

For `Cc1ncc(CO)c2cc(C(=O)Nc3ccc(F)c(F)c3)c(=Nc3cc(O)cc(CO)c3)oc12` [GFY-13], the Inhibition rate % was 13.978%.

With `Cc1ncc(CO)c2cc(C(=O)Nc3ccc(F)c(Cl)c3)c(=Nc3cccc(CO)c3)oc12` [GFY-16] the Inhibition rate % was 89.604% and the IC50 was 140 µM.

`Cc1ncc(CO)c2cc(C(=O)Nc3ccc(F)c(Cl)c3)c(=Nc3cc(O)cc(CO)c3)oc12` [GFY-17] showed an Inhibition rate % of 31.045%.

With `Cc1ncc(CO)c2cc(C(=O)Nc3ccc(F)cc3)c(=Nc3ccc(F)cc3)oc12` [GFY-20] the Inhibition rate % was 95.56% and the IC50 was 20.1 µM.

For `Cc1ncc(CO)c2cc(C(=O)Nc3ccc(F)cc3)c(=Nc3cc(F)cc(F)c3)oc12` [GFY-21], the Inhibition rate % was 99.916% and the IC50 was 43.1 µM.

In the case of `Cc1ncc(CO)c2cc(C(=O)Nc3ccc(F)cc3)c(=Nc3ccc(F)c(F)c3)oc12` [GFY-22], the Inhibition rate % is reported as 86.819% and the IC50 is reported as 37 µM.

`Cc1ncc(CO)c2cc(C(=O)Nc3ccc(F)c(Cl)c3)c(=Nc3ccc(F)cc3)oc12` [GFY-23] showed an Inhibition rate % of 22.127%.

`Cc1ncc(CO)c2cc(C(=O)Nc3ccc(F)c(Cl)c3)c(=Nc3cc(F)cc(F)c3)oc12` [GFY-24] gave an Inhibition rate % of 99.833% and an IC50 of 16.6 µM.

In the case of `Cc1ncc(CO)c2cc(C(=O)Nc3ccc(F)c(Cl)c3)c(=Nc3ccc(F)c(F)c3)oc12` [GFY-25], the Inhibition rate % is reported as 69.628%.

Compound `Cc1ncc(CO)c2cc(C(=O)Nc3ccc(F)c(Cl)c3)c(=Nc3ccc(Cl)cc3)oc12` [GFY-26] has an Inhibition rate % of 62.651%.

Compound `Cc1ncc(CO)c2cc(C(=O)Nc3ccc(F)c(Cl)c3)c(=Nc3cc(Br)cc(Br)c3)oc12` [GFY-27] has an Inhibition rate % of 56.656%.

Work on `Cc1ncc(CO)c2cc(C(=O)Nc3ccc(F)c(Cl)c3)c(=Nc3ccc(Br)c(Br)c3)oc12` [GFY-28] yielded an Inhibition rate % of 64.035%.

Work on `Cc1ncc(CO)c2cc(C(=O)Nc3ccc(F)cc3)c(=Nc3cc(Br)cc(Br)c3)oc12` [GFY-29] yielded an Inhibition rate % of 94.686% and an IC50 of 27 µM.
